From PubChem BioAssay AID2060890 (Molecular Pharmacology Branch, DTP, NCI, 2025) come the findings set out here.

pIC50: −log10 of the molar value. “And” between values parts separate entries of the source, which are not always exact repeats. Equal values may be shown once.

A word on the pIC50: it is the IC50 on a negative log10 scale, so that one unit is a factor of ten. The term viability, T/C denotes the ratio of treated to control.

The subject of this assay is LG0703-F948-PDC complex spheroid viability. The assay can be described thus: Anticancer human tumor LG0703-F948-PDC patient-derived lung adenocarcinoma cell line growth inhibition [RAS]. As to conditions: for viability, T/C: stronger effect = lower value. The method, boiled down:
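Multi-cell-type spheroids: tumor cells plus HUVEC endothelial cells and mesenchymal stem cells. RAS-pathway inhibitors were combined with targeted agents, each dosed in half-log steps down from clinical Cmax, or from 10 microM when Cmax was unknown.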
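Note: spheroids exposed to agents for 7 days.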
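Throughout, for viability, T/C: 100% = DMSO vehicle wells.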

With `C=CC(=O)Nc1cc(Nc2nccc(-c3cn(C)c4ccccc34)n2)c(OC)cc1N(C)CCN(C)C` + C=CC(=O)N1CCN(c2nc(OCC3CCCN3C)nc3c(F)c(-c4nc(N)cc(C)c4C(F)(F)F)c(Cl)cc23)C(C)C1, the pIC50 (curve of first compound, second compound 0.00316 µM) was 8.14; the pIC50 (curve of first compound, second compound 0.01 µM) was 8.10; the negative logarithm of the IC50 (pIC50) (curve of first compound, second compound 0.0316 µM) was 8.07; the negative logarithm of the IC50 (pIC50) (curve of first compound, second compound 0.1 µM) was 8.08; the negative logarithm of the IC50 (pIC50) (curve of first compound, second compound 0.316 µM) is 8.10; the negative-log IC50 (pIC50) (curve of first compound, second compound 1 µM) was 8.08. The viability, T/C runs as follows: (second compound 0.00316 µM, first compound 0.00316 µM) 75.2%; (second compound 0.00316 µM, first compound 0.01 µM) 40.8%; (second compound 0.00316 µM, first compound 0.0316 µM) 16.2%; (second compound 0.00316 µM, first compound 0.1 µM) 14.6%; (second compound 0.00316 µM, first compound 0.316 µM) 10.9%; (second compound 0.00316 µM, first compound 1 µM) 8.91%. Moreover, the viability, T/C is 79.8% (second compound 0.01 µM, first compound 0.00316 µM); 42.7% (second compound 0.01 µM, first compound 0.01 µM); 16.9% (second compound 0.01 µM, first compound 0.0316 µM); 9.65% (second compound 0.01 µM, first compound 0.1 µM); 8.46% (second compound 0.01 µM, first compound 0.316 µM); 7.04% (second compound 0.01 µM, first compound 1 µM). For the same compound, the viability, T/C was 79.7% (second compound 0.0316 µM, first compound 0.00316 µM); 45% (second compound 0.0316 µM, first compound 0.01 µM); 16.2% (second compound 0.0316 µM, first compound 0.0316 µM); 10.3% (second compound 0.0316 µM, first compound 0.1 µM); 10.2% (second compound 0.0316 µM, first compound 0.316 µM); 6.08% (second compound 0.0316 µM, first compound 1 µM). Further, the viability, T/C is 86.3% (second compound 0.1 µM, first compound 0.00316 µM); 43% (second compound 0.1 µM, first compound 0.01 µM); 14.8% (second compound 0.1 µM, first compound 0.0316 µM); 10.8% (second compound 0.1 µM, first compound 0.1 µM); 9.54% (second compound 0.1 µM, first compound 0.316 µM); 6.22% (second compound 0.1 µM, first compound 1 µM). Further, the viability, T/C is, setting by setting: (second compound 0.316 µM, first compound 0.00316 µM) 79.2%; (second compound 0.316 µM, first compound 0.01 µM) 42.7%; (second compound 0.316 µM, first compound 0.0316 µM) 17.4%; (second compound 0.316 µM, first compound 0.1 µM) 9.84%; (second compound 0.316 µM, first compound 0.316 µM) 9.21%; (second compound 0.316 µM, first compound 1 µM) 6.05%. Also, the viability, T/C runs as follows: (second compound 1 µM, first compound 0.00316 µM) 79.5%; (second compound 1 µM, first compound 0.01 µM) 44.5%; (second compound 1 µM, first compound 0.0316 µM) 15.7%; (second compound 1 µM, first compound 0.1 µM) 10.2%; (second compound 1 µM, first compound 0.316 µM) 9.74%; (second compound 1 µM, first compound 1 µM) 5.04%.
Consider `Cc1nc(N2CCC3(CC2)COC(C)C3N)c(CO)nc1Sc1ccnc(N)c1Cl` (stereo unspecified), for which the viability, T/C (compound 0.0316 µM) was 91.6% and 86.5% and 84.2%; the viability, T/C (compound 0.1 µM) was 68.1% and 83.2% and 66.4%; the viability, T/C (compound 0.316 µM) is 50.8% and 48.3% and 51.7%; the viability, T/C (compound 1 µM) is 36.9% and 35.6% and 34.5%; the viability, T/C (compound 3.16 µM) was 22% and 21.2% and 25.2%; the viability, T/C (compound 10 µM) was 11.4% and 12.8% and 12.1%. For the same compound, the pIC50 (curve of compound) is 6.46 and 6.40 and 6.47.
Consider `CCN1CCN(Cc2ccc(Nc3ncc(F)c(-c4cc(F)c5nc(C)n(C(C)C)c5c4)n3)nc2)CC1` + CCn1c(-c2cc(N3CCN(C)CC3)cnc2C(C)OC)c2c3cc(ccc31)-c1csc(n1)CC(NC(=O)C1CC1C)C(=O)N1CCCC(N1)C(=O)OCC(C)(C)C2, for which the pIC50 was less than 6.00 (curve of first compound, second compound 0.000949 µM); less than 6.00 (curve of first compound, second compound 0.003 µM); more than 8.50 (curve of first compound, second compound 0.00949 µM); more than 8.50 (curve of first compound, second compound 0.03 µM); more than 8.50 (curve of first compound, second compound 0.0949 µM); more than 8.50 (curve of first compound, second compound 0.3 µM). The viability, T/C is 82% (second compound 0.000949 µM, first compound 0.00316 µM); 68% (second compound 0.000949 µM, first compound 0.01 µM); 60.8% (second compound 0.000949 µM, first compound 0.0316 µM); 68.2% (second compound 0.000949 µM, first compound 0.1 µM); 63.9% (second compound 0.000949 µM, first compound 0.316 µM); 52% (second compound 0.000949 µM, first compound 1 µM). For the same compound, the viability, T/C (second compound 0.003 µM, first compound 0.00316 µM) is 58.2%; the viability, T/C (second compound 0.003 µM, first compound 0.01 µM) was 49.1%; the viability, T/C (second compound 0.003 µM, first compound 0.0316 µM) was 47.7%; the viability, T/C (second compound 0.003 µM, first compound 0.1 µM) was 53.2%; the viability, T/C (second compound 0.003 µM, first compound 0.316 µM) was 57%; the viability, T/C (second compound 0.003 µM, first compound 1 µM) was 48.9%. Further, the viability, T/C (second compound 0.00949 µM, first compound 0.00316 µM) was 26.1%; the viability, T/C (second compound 0.00949 µM, first compound 0.01 µM) is 24.8%; the viability, T/C (second compound 0.00949 µM, first compound 0.0316 µM) was 28.4%; the viability, T/C (second compound 0.00949 µM, first compound 0.1 µM) was 22%; the viability, T/C (second compound 0.00949 µM, first compound 0.316 µM) is 31.7%; the viability, T/C (second compound 0.00949 µM, first compound 1 µM) is 34.5%. Further, the viability, T/C is 17% (second compound 0.03 µM, first compound 0.00316 µM); 14.6% (second compound 0.03 µM, first compound 0.01 µM); 14.7% (second compound 0.03 µM, first compound 0.0316 µM); 17% (second compound 0.03 µM, first compound 0.1 µM); 18.6% (second compound 0.03 µM, first compound 0.316 µM); 26.2% (second compound 0.03 µM, first compound 1 µM). Also, the viability, T/C was 10.1% (second compound 0.0949 µM, first compound 0.00316 µM); 11.1% (second compound 0.0949 µM, first compound 0.01 µM); 10.2% (second compound 0.0949 µM, first compound 0.0316 µM); 11.3% (second compound 0.0949 µM, first compound 0.1 µM); 14.9% (second compound 0.0949 µM, first compound 0.316 µM); 23.9% (second compound 0.0949 µM, first compound 1 µM). In addition, the viability, T/C is 9.56% (second compound 0.3 µM, first compound 0.00316 µM); 9.57% (second compound 0.3 µM, first compound 0.01 µM); 8.56% (second compound 0.3 µM, first compound 0.0316 µM); 10.3% (second compound 0.3 µM, first compound 0.1 µM); 13.5% (second compound 0.3 µM, first compound 0.316 µM); 18.3% (second compound 0.3 µM, first compound 1 µM).
Regarding `Nc1ccn(C2OC(CO)C(O)C2(F)F)c(=O)n1` (stereo unspecified), the viability, T/C (compound 0.00316 µM) is 73.4% [middle of 4 runs]; the viability, T/C (compound 0.0316 µM) is 38.3% [middle of 4 runs]; the viability, T/C (compound 0.1 µM) is 37.3% [middle of 4 runs]; the viability, T/C (compound 0.316 µM) is 37.3% [middle of 4 runs]; the viability, T/C (compound 1 µM) was 32.1% [middle of 4 runs].
